Consider five compounds from patent EP0966963A1, “Use of indigoid bisindole derivatives as CDK1 inhibitors” (Eisenbrand, Gerhard, Prof. Dr., priority 1998, dated 1999).

SMILES strings stand for the structures.

One assay relates to PKA. The following applies: known chemical inhibitors, Meijer 1996; cited from earlier work.
Another assay addresses CDK4 (Homo sapiens, UniProt P11802). The conditions noted are these: known chemical inhibitors, Meijer 1996; cited from earlier work.
The next assay deals with p34^cdc2/cyclin B. Kind of assay: p34cdc2/cyclin B kinase assay (histone H1 phosphorylation, [32P]ATP). The conditions noted are these: 1 mg histone H1/ml, 15 µM ATP, 10 min at 30°C. Format: biochemical, starfish (Marthasterias glacialis). The procedure:
J. Biochem., 243, (1997), 527-536). […] After 10 min. incubation at 30°C, 25 μl aliquots of supernatant were spotted onto 2.5 x 3 cm pieces of Whatman P81 phosphocellulose paper, and after 20 sec., the filters were washed five times (for at least 5 min. each time) in a solution of 10 ml phosphoric acid/liter of water. The wet filters were transferred into 6 ml plastic scintillation vials, 5 ml ACS (Amersham) scintillation fluid was added and the radioactivity measured in a Packard scintillation counter.

Assay [1] concerns the target cAMP-dependent protein kinase. As to the kind of experiment: PKA inhibition (specificity panel). Format: biochemical.
In assay [2] the target is Ca^2+- dependent protein kinase. As to the kind of experiment: PKC inhibition (specificity panel). Format: biochemical.
A further assay concerns cdc25. Kind of assay: cdc25 inhibition (specificity panel). Format: biochemical.

Usually IC50 stands for the concentration that inhibits the measured activity by half.

CDK4, sequence (P11802 whole entry, species assumed): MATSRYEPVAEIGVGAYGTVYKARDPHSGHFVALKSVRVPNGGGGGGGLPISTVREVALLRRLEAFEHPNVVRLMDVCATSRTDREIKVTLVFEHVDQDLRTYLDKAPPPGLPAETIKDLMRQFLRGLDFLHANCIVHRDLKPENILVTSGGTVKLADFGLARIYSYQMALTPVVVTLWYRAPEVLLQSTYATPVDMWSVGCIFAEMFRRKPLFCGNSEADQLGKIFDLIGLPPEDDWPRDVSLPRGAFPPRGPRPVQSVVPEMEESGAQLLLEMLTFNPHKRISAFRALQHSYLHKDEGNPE
CDK4, sequence (P24385 whole entry partner, species assumed): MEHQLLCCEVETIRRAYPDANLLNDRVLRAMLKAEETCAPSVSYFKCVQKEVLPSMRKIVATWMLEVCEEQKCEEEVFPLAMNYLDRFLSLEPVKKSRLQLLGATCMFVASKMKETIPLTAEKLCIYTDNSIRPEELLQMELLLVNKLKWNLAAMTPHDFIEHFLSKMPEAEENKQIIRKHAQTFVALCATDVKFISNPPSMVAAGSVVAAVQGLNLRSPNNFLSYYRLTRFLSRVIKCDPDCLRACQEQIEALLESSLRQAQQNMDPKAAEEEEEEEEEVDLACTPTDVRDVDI

As to `COC(=O)[C@@]1(Cc2ccc(O)c(CC=C(C)C)c2)OC(=O)C(O)=C1c1ccc(O)cc1` [Butyrolactone-l], the IC50 in the assay on PKA was 260 µM. Moreover, the “IC50 CDK4” value at CDK4 is on record as “no effect”.

For the compound `O=C1Nc2ccccc2C1=C1Nc2ccccc2C1=O` [Example 1, Indirubine], the IC50 against p34^cdc2/cyclin B amounted to 2 µM; in the assay on cdc25, 150 µM. In addition, in assay [1], the “IC50 PKA” value is “no Effect”. The “IC50 PKC” value in assay [2] is listed as “no Effect”.

For the compound `O=C1Nc2ccc(I)cc2C1=C1Nc2ccccc2C1=O` [Example 2, 5-Iodoindirubine], the “IC50 PKA” value in assay [1] is listed as “no Effect”. In assay [2], the “IC50 PKC” value is “no Effect”.

Turning to `O=C1Nc2ccccc2C1=C1Nc2ccccc2C1=NO` [Example 10, Indirubine-3'-oxime], inhibition against p34^cdc2/cyclin B was half-maximal at 0.18 µM (IC50).

In the case of `CN1CC[C@H](c2c(O)cc(O)c3c(=O)cc(-c4ccccc4Cl)oc23)[C@H](O)C1` [Flavopiridol], the IC50 in the assay with PKA was 145 µM.
